According to BigSolDB 2.1:

CC(=O)Nc1ccc(OC(=O)c2ccccc2OC(C)=O)cc1
solubility (mole fraction)
Conditions	278.15 K	283.15 K	288.15 K	293.15 K	298.15 K	303.15 K	308.15 K	313.15 K	318.15 K
in 1,4-dioxane	–	–	–	0.00169	0.00204	0.0025	0.00298	0.0035	0.00427
in 2-butanone	0.0025	0.00267	0.00287	0.00308	0.00333	0.00361	0.00392	0.00429	0.00465
in DMF	0.0172	0.0182	0.0192	0.0203	0.0215	0.0228	0.0242	–	–
in NMP	0.0209	0.024	0.0272	0.0304	0.0341	0.0378	0.0417	0.0464	0.0512
in acetonitrile	0.000681	0.000855	0.00105	0.00134	0.00164	0.00199	0.00236	0.00283	0.00339
in ethanol	0.000158	0.00021	0.000265	0.000326	0.000403	0.000486	0.000589	0.000733	0.000907
in ethyl acetate	0.000392	0.000519	0.000651	0.000789	0.000983	0.00119	0.00141	0.00169	0.00198
in isopropanol	7.6e-05	0.000107	0.000139	0.000178	0.000217	0.000262	0.000323	0.000394	0.000493
in methanol	0.000143	0.000182	0.000228	0.000278	0.000337	0.000403	0.000485	0.000601	0.000745
in n-butanol	0.000179	0.000235	0.0003	0.000375	0.000459	0.000557	0.000683	0.000852	0.00104
in n-propanol	8.8e-05	0.000128	0.000173	0.000214	0.000264	0.000327	0.000402	0.000496	0.000647
in toluene	1.3e-05	1.8e-05	2.5e-05	3.4e-05	4.3e-05	5.5e-05	6.8e-05	8.6e-05	0.000108
